Results published in patent US12221436B2, “Anthranilamides, their use as insecticide and processes for preparing the same” (PI INDUSTRIES LTD., priority 2018, dated 2025).

Legend:
Bemisia tabaci = assay: Example D: Bemisia tabaci, leaf dip method (cotton leaves); type: in vivo; details: foliar, freshly emerged adults, 72 h after release, dead and moribund combined, read-out: percent mortality
Protocol: (§1) Test solutions were prepared according to the procedure described herein below (500 PPM):
(§2) • 1. Eppendorf Vortex mixer (ThermoMixer C) and 1.5 mL Eppendorf tubes • 2. Beaker—100 mL • 3. Micro-pipette Reagents: • 1. Surfactant Solution • 2. De-mineralized (DM) Water Procedure: • 1. Weigh 10 mg of the compound of the present invention to be tested in an Eppendorf Tube. • 2. Add 200 mg of the Surfactant Solution into the tube. • 3. Fix the tube in Eppendorf Vortex mixer and start vortexing at 2000 rpm. • 4. Mix on Vortex mixer for 30 min. After 30 min, observe the sample over a microscope at 400× resolution. • 5. Add 1.0 mL DM water into the tube, close the cap, shake the tube thoroughly and transfer the contents, along with the beads, into a beaker. • 6. To rinse the tube, add another 1.0 mL of DM water into the tube, close the cap, shake well and transfer this into the same beaker. • 7. Repeat […] one more time so that the tube is rinsed well and all the compound of the present invention is transferred to the beaker. • 8. Add 16.8 mL of DM water into the beaker and stir well. • 9. Immediately use this sample for biological testing. • 10. Further dilutions can be prepared by taking appropriate quantity of the aliquot of Step 8, immediately after stirring, and diluting as per requirement. The sample solution must be well mixed just before biological testing.
Leaf dip method was used for screening, wherein the required quantity of the compounds were weighed and dissolved in the test solution into the tube and vortex at 2000 rpm with Zirconia beads for 90 min and for proper mixing, then mixed with 0.01% Triton-X solution to get the desired test concentration. Cotton leaves were dipped in the solution for 10 seconds, shade dried for 20 min and then leaves were kept in glass units with petiole dipped in water. […] Observations on dead, moribund and live […] were recorded at 72 h after the release. Percent mortality was calculated by combining dead and moribund adults. […]

Myzus persicae = assay: Example E: Myzus persicae, leaf dip method (capsicum leaves); type: in vivo; details: foliar, third instar nymphs, 72 h after release, dead and moribund combined, read-out: percent mortality
Protocol: as §1, §2
Leaf dip method was used for screening, wherein the required quantity of the compounds were weighed and dissolved in the test solution into the tube and vortex at 2000 rpm with Zirconia beads for 90 min and for proper mixing, then mixed with 0.01% Triton-X solution to get the desired test concentration. Capsicum leaves were dipped in the solution for 10 seconds, shade dried for 20 min and then leaves were kept in glass units with petiole dipped in water. Known numbers of third instar nymphs were released and were kept in the plant growth chamber at a temperature of 25° C. and Relative Humidity of 70%. Observations on dead, moribund and live nymphs were recorded at 72 h after the release. Percent mortality was calculated by combining dead and moribund nymphs. The following compound numbers

Compound	mortality at 300 ppm (Bemisia tabaci) [%]	mortality at 300 ppm (Myzus persicae) [%]
CC(C)(C)NC(=O)c1cc(Cl)cc(Cl)c1NC(=O)c1cc(OC2CSC2)nn1-c1ncccc1Cl [Compound 176, N-(2-(tert-butylcarbamoyl)-4,6-dichlorophenyl)-1-(3-chloropyridin-2-yl)-3-(thietan-3-yloxy)-1H-pyrazole-5-carboxamide]	> 50	> 50
Cc1cc(Cl)cc(C(=O)NC(C)(C)C)c1NC(=O)c1cc(OC2CSC2)nn1-c1ncccc1Cl [Compound 97, N-(2-(tert-butylcarbamoyl)-4-chloro-6-methylphenyl)-1-(3-chloropyridin-2-yl)-3-(thietan-3-yloxy)-1H-pyrazole-5-carboxamide]	> 50	> 50
Cc1cc(Cl)cc(C(=O)NC(C)(C)C)c1NC(=O)c1cc(OC2CS(=O)(=O)C2)nn1-c1ncccc1Cl [Compound 99, N-(2-(tert-butylcarbamoyl)-4-chloro-6-methylphenyl)-1-(3-chloropyridin-2-yl)-3-((1,1-dioxidothietan-3-yl)oxy)-1H-pyrazole-5-carboxamide]	> 50	–
